Laboratory results taken from patent EP0150227A1, “Dipeptide derivatives and their use in determining the activity of carboxypeptidase A” (FUJIREBIO KABUSHIKI KAISHA also trading as FUJIREBIO INC., priority 1983, dated 1985).
Values belong to the compound of their own block, whether it stands above or below them. Non-standard residues stand in square brackets, D forms with d. Residues, ends and D or L forms follow the SMILES beside them. 4Abz = Nc1ccc(C(=O)O)cc1

Tests used:
Type in all cases: biochemical
[1] = tested on: carboxypeptidase A; test: Spectrophotometric CP-A activity determination (hippuricase, benzoate hydroxylase, decrease of NADPH/NADH absorbance at 340 nm)
Procedure: […] of serum (the same as used in Example 6) was added to 0.5 ml of a test reagent solution (pH 8.0) containing 10 mM p-hydroxybenzoylglycyl-L-tyrosine, 3000 U/1 hippuricase, 0.2 mM NADPH, 10000 U/1 p-hydroxybenzoate hydroxylase and 100 mM boric acid.
The decrease in the absorbance by the solution was measured at 340 nm of light at a temperature of 37°C during the course of the reaction. There was used for the measurement a reaction rate analyser in which the reaction time was five minutes. The activity value (mU/ml) of CP-A was automatically printed out in the analyser.
The calculation of activity was performed according to the following formula: [formula] wherein ε = 6.22 x 10^3 (Molecular extinction coefficient of NADPH)
The activity of CP-A was determined by repeating the procedure shown in Example 8 except that o-hydroxybenzoyl-L-isoleucyl-L-phenylalanine was used instead of p-hydroxybenzoylglycyl-L-tyrosine, salicylate hydroxylase was used instead of p-hydroxybenzoate hydroxylase, and nicotinamide adenine dinucleotide in reduced form (NADH) was used instead of NADPH.
The activity of CP-A was determined by repeating the procedure shown in Example 8 with a mixture prepared by adding 0.05 ml of serum (the same as used in Example 6) to 0.5 ml of a test reagent solution (pH 8.0) containing 30 mM p-methoxybenzoyl-L-leucyl-L-phenylalanine, 1000 U/1 hippuricase, 0.2 mM NADH, 20000 U/1 p-methoxybenzoate hydroxylase and 100 mM phosphoric acid.

[2] = tested on: carboxypeptidase A; test: Colourimetric CP-A activity determination (hippuricase, NaNO2 diazotisation, azo dye at 505 nm); details: same serum as Example 6; 20 mM substrate, pH 8.0, 37°C, 20 minutes; repeated 20 times, CV 5.3%
Procedure: 0.05 ml of serum (the same as used in Example 6) containing CP-A was added to 0.5 ml of a test reagent solution (pH 8.0) containing 20 mM p-aminobenzoyl-L-alanyl-L-tyrosine, 0.5 M NaCl, 3000 U/1 hippuricase and 100 mM boric acid. After this mixture had been allowed to stand at 37°C for 20 minutes, 0.5 ml of a solution containing 2 mM NaN02 and 1 mM NaOH was added to the mixture, and the mixture was allowed to stand at room temperature for 10 minutes. 0.5 ml of a reagent solution containing 1 mM potassium l-naphthol-2-sulphate, 50 mM boric acid and 200 mM NaOH was added to the mixture. The absorbance by the solution was measured at 505 nm of light. This absorbance is referred to as Absorbance A.
Absorbance B was measured by repeating the procedure as shown above but using 0.05 ml of an aqueous solution containing 10 uM p-aminobenzoic acid instead of 0.05 ml of serum, and Absorbance C was measured by repeating the procedure as shown above but using 0.05 ml of distilled water instead of 0.05 ml of serum.
The activity value (mU/ml) of CP-A can be calculated by the following equation: [formula]

[3] = tested on: carboxypeptidase A; test: Colourimetric CP-A activity determination (hippuricase, 4-aminoantipyrine, periodate, quinonimine dye at 505 nm); details: serum containing carboxypeptidase A; 10 mM substrate, pH 7.8, 37°C, 20 minutes; test repeated 20 times, CV 3.4%
Procedure: 0.1 ml of serum containing carboxypeptidase A was added to 0.5 ml of a test reagent solution of pH 7.8 containing 10 mM p-hydroxybenzoyl-L-alanyl-L-phenylalanine, 0.1 M sodium chloride, 3000 U/1 hippuricase, 2.5 mM 4-aminoantipyrine and 100 mM N-2-hydroxyethyl piperazine-N-2-ethane sulphonic acid. The mixture was incubated at 37°C for 20 minutes. 1.5 ml of a reaction termination solution containing 6.5 mM sodium periodate was added to this reaction mixture. The mixture obtained was incubated at 37°C for five minutes, so that quinonimine dye was formed. The absorbance of the reaction mixture was measured at a light wavelength of 505 nm. This absorbance is referred to as Absorbance A.
Separately, for a blank (comparison) test, in the procedure as mentioned above, 1.5 ml of a reaction termination solution containing 6.5 mM sodium […] was added to the test reagent solution before 0.1 ml of serum containing carboxypeptidase A was added to the test reagent solution. The absorbance of the blank test reagent was then measured in the same manner as described above, at a light wavelength of 505 nm. This absorbance is referred to as Absorbance B.
The activity value (mU/ml) of carboxypeptidase A can be calculated by the following equation: [formula] where ε = 12000 (Molecular extinction coefficient or guinon- imine dye)

SMILES: CC[C@H](C)[C@H](NC(=O)c1ccccc1O)C(=O)N[C@@H](Cc1ccccc1)C(=O)O [o-hydroxybenzoyl-L-isoleucyl-L-phenylalanine]
Activity value ([1]; procedure of Example 8 with salicylate hydroxylase and NADH, CV 7.0%): 1.1 mU/ml

SMILES: O=C(CNC(=O)c1ccc(O)cc1)N[C@@H](Cc1ccc(O)cc1)C(=O)O [p-hydroxybenzoylglycyl-L-tyrosine]
Activity value ([1]; same serum as Example 6, 10 mM substrate, pH 8.0, 37°C, 0.2 mM NADPH, p-hydroxybenzoate hydroxylase, repeated 20 times, CV 5.2%): 6.2 mU/ml

SMILES: COc1ccc(C(=O)N[C@@H](CC(C)C)C(=O)N[C@@H](Cc2ccccc2)C(=O)O)cc1 [p-methoxybenzoyl-L-leucyl-L-phenylalanine]
Activity value ([1]; same serum as Example 6, 30 mM substrate, pH 8.0, 0.2 mM NADH, p-methoxybenzoate hydroxylase, 100 mM phosphoric acid, CV 4.7%): 2.5 mU/ml

More lines, now with the values ahead:

Activity value [2]: 1.7 mU/ml
SMILES: C[C@H](NC(=O)c1ccc(N)cc1)C(=O)N[C@@H](Cc1ccc(O)cc1)C(=O)O [p-aminobenzoyl-L-alanyl-L-tyrosine] (H-[4Abz]-Ala-Tyr-OH)

Activity value [3]: 5.1 mU/ml
SMILES: C[C@H](NC(=O)c1ccc(O)cc1)C(=O)N[C@@H](Cc1ccccc1)C(=O)O [p-hydroxybenzoyl-L-alanyl-L-phenylalanine]
